Results: US7132456B2, “MCH receptor antagonists” (Eli Lilly and Company, priority 2002, dated 2006)
Structures can show the parent of a compound that is named as a salt. Where two headings read alike, the source gives them in different places.

Key:
human MCHR1 = biological target: T1, human MCHR1 (Homo sapiens, UniProt Q99705); experiment: 125I-MCH competitive binding assay on clone 43 membranes (MCHR1 binding); conditions: competitive binding vs 100 pM 125I-MCH, clone 43 membranes (AV12 cells expressing MCHR1), Ki from IC50 by Cheng-Prusoff, tested in duplicate, read-out: MCHr Binding Ki
T1 construct: The full-length cDNA for human MCHR1 was cloned; expressed in transfected cells; host or cells: AV12 cells previously transfected with Gα15
Experimental: The full-length cDNA for human MCHR1 was cloned from a human adult brain cDNA library (Edge Biosystems, Cat. 38356) by standard polymerase chain reaction (PCR) methodology employing the following primers: sense, 5′-GCCACCATGGACCT GGAAGCCTCGCTGC-3′; anti-sense, 5′-[…]-3′. The PCR reaction was performed in a final volume of 50 μL containing 5 μL of a 10× stock solution of PCR buffer, 1 μL of 10 mM dNTP mixture (200 μM final), 2 μL of 50 mM Mg(SO4) (2 mM final), 0.5 μL of 20 μM solutions of each primer (0.2 μM final), 5 μL of template cDNA containing 0.5 ng DNA, 0.5 μL of Platinum Taq High Fidelity DNA polymerase (Gibco Life Technologies) and 36 μL of H2O. PCR amplification was performed on a Perkin Elmer 9600 thermocycler. After denaturation for 90 sec at 94° C., the amplification sequence consisting of 94° C. for 25 sec, 55° C. for 25 sec and 72° C. for 2 min was repeated 30 times, followed by a final elongation step at 72° C. for 10 min. The desired PCR product (1.1 Kb) was confirmed by agarose gel electrophoresis and the band was extracted from the gel by Geneclean (Bio101) following the manufacturer's instructions. Following extraction, the cDNA fragment was cloned into pCR2.1-TOPO plasmid (Invitrogen) to confirm the identity and sequence.
In order to generate cell lines stably expressing MCHR1, the insert was then subcloned into the Xba I and Not I sites of pcDNA(+)-3.1-neomycin (Invitrogen). After purification by Qiagen Maxi-prep kit (QIAGEN, Inc.), the plasmid was transfected by Fugene 6 (Roche Applied Science) into AV12 cells that had been previously transfected with the promiscuous G protein Gα15. The transfected cells were selected by G418 (800 μg/mL) for 10–14 days and single colonies were isolated from culture plates. The G418-resistant colonies were further selected for MCHR1 expression by measuring MCH-stimulated Ca^2+ transients with a fluorometric imaging plate reader (FLIPR, Molecular Devices).
Both the ^125I-MCH binding and functional GTPγ^35S binding assays employed membranes isolated from a clone designated as clone 43. Typically, cells from 20 confluent T225 flasks were processed by washing the monolayers in cold phosphate-buffered saline (PBS), scraping the cells into same and re-suspending the cell pellet in 35 mL of 250 mM Sucrose, 50 mM HEPES, pH 7.5, 1 mM MgCl2, 24 μg/mL DNase I, and protease inhibitors (1 Complete® tablet, per 50 ml of buffer prepared, Roche Diagnostics). After incubation on ice for 5 min, cells were disrupted with 20–25 strokes of a Teflon/Glass homogenizer attached to an overhead motorized stirrer, and the homogenate was centrifuged at 40,000 rpm in Beckman Type 70.1 Ti rotor. The pellets were re-suspended in 250 mM Sucrose, 50 mM HEPES, pH 7.5, 1.5 mM CaCl2, 1 mM MgSO4 and protease inhibitors by Teflon/Glass homogenization to achieve a protein concentration of ˜3–5 mg/ml (Pierce BCA assay with Bovine serum albumin as standard). Aliquots were stored at −70° C.
Binding of compounds to MCHR1 was assessed in a competitive binding assay employing ^125I-MCH, compound and clone 43 membranes. Briefly, assays are carried out in 96-well Costar 3632 white opaque plates in a total volume of 200 μl containing 25 mM HEPES, pH 7.5, 10 mM CaCl2, 2 mg/ml bovine serum albumin, 0.5% dimethyl sulfoxide (DMSO), 4 μg of clone 43 membranes, 100 pM ^125I-MCH (NEN), 1.0 mg of wheat germ agglutinin scintillation proximity assay beads (WGA-SPA beads, Amersham) and a graded dose of test compound. Non-specific binding is assessed in the presence of 1 μM unlabeled MCH. Bound ^125I-MCH is determined by placing sealed plates in a Microbeta Trilux (Wallac) and counting after a 5 hr delay.
IC50 values (defined as the concentration of test compound required to reduce specific binding of ^125I-MCH by 50%) are determined by fitting the concentration-response data to a 4-parameter model (max response, min response, Hill coefficient, IC50) using Excel. […]

T1 sequence (Q99705 whole entry): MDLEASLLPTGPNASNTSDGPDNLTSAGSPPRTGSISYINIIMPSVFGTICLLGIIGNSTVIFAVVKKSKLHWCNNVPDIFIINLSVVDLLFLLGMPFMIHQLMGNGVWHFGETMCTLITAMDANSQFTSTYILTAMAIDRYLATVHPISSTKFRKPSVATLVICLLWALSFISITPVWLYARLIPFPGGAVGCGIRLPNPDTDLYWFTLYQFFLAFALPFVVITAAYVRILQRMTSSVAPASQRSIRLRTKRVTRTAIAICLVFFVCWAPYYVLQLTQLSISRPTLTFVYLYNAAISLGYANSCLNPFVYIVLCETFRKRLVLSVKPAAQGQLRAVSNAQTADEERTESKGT

melting point [°C]	Ki (human MCHR1) [µM]	Compound	Ki (human MCHR1; oxalate) [µM]
46 to 50	–	CN(C)CCNC(=O)c1ccccc1-c1ccccc1CSCCOc1ccccc1.O=C(O)C(=O)O	–
64 to 70	–	CN(C)CCCCNC(=O)c1ccccc1-c1ccccc1CSCCOc1ccccc1.O=C(O)C(=O)O	–
109 to 113	–	CN(C)CCNC(=O)c1ccccc1-c1ccc(CSCCOc2ccccc2)cc1.O=C(O)C(=O)O	–
144 to 147	10.7	CN(C)CCCCNC(=O)c1cccc(-c2ccc(CSCCOc3ccccc3)cc2)c1.O=C(O)C(=O)O [Example 3, 4′-(2-phenoxy-ethylsulfanylmethyl)-biphenyl-3-carboxylic acid (4-dimethylamino-butyl)-amide oxalate]	–
142 to 147	10.1	CN(C)CCCCNC(=O)c1ccc(-c2ccc(CSCCOc3ccccc3)cc2)cc1.O=C(O)C(=O)O [Example 6, 4′-(2-phenoxy-ethylsulfanylmethyl)-biphenyl-4-carboxylic acid (4-dimethylamino-butyl)-amide oxalate]	–
72 to 76	16.3	CN(C)CCCCNC(=O)c1ccccc1-c1ccc(CSCCOc2ccccc2)cc1.O=C(O)C(=O)O [Example 9, 4′-(2-phenoxy-ethylsulfanylmethyl)-biphenyl-2-carboxylic acid (4-dimethylamino-butyl)-amide oxalate]	–
85 to 89	8.96	CN(C)CCCCNC(=O)c1ccc(-c2cccc(CSCCOc3ccccc3)c2)cc1.O=C(O)C(=O)O [Example 16, 3′-(2-phenoxy-ethylsulfanylmethyl)-biphenyl4-carboxylic acid (4-dimethylamino-butyl)-amide oxalate]	–
96 to 100	11.4	CN(C)CCNC(=O)c1cccc(-c2ccccc2CSCCOc2ccccc2)c1.O=C(O)C(=O)O [Example 20, 2′-(2-phenoxy-ethylsulfanylmethyl)-biphenyl-3-carboxylic acid (2-dimethylamino-ethyl)-amide oxalate]	–
97 to 100	8.55	CN(C)CCCNC(=O)c1cccc(-c2ccccc2CSCCOc2ccccc2)c1.O=C(O)C(=O)O [Example 21, 2′-(2-phenoxy-ethylsulfanylmethyl)-biphenyl-3-carboxylic acid (3-dimethylamino-propyl)-amide oxalate]	–
–	6.89	CN(C)CCCCNC(=O)c1ccc(-c2ccccc2CSCCOc2ccccc2)cc1 [Example 25, 2′-(2-phenoxy-ethylsulfanylmethyl)-biphenyl4-carboxylic acid (4-dimethylamino-butyl)-amide]	–

The remaining lines, values behind:

Compound	melting point [°C]	Ki (human MCHR1) [µM]	Ki (human MCHR1; oxalate) [µM]
CN(C)CCNC(=O)c1ccccc1-c1cccc(CSCCOc2ccccc2)c1.Cl	150 to 153	–	–
2′-(2-phenoxy-ethylsulfanylmethyl)-biphenyl-3-carboxylic acid (4-dimethylamino-butyl)-amide oxalate [Example 22]	–	10.8	–
4′-(2-phenoxy-ethylsulfanylmethyl)-biphenyl-4-carboxylic acid (2-dimethylamino-ethyl)-amide oxalate [Example 4]	–	–	11.7
CN(C)CCCNC(=O)c1ccc(-c2ccc(CSCCOc3ccccc3)cc2)cc1 (as salt: hydrochloride)	112 to 115	–	–
CN(C)CCCNC(=O)c1cccc(-c2ccc(CSCCOc3ccccc3)cc2)c1.O=C(O)C(=O)O [Example 1, 4′-(2-phenoxy-ethylsulfanylmethyl)-biphenyl-3-carboxylic acid(3-dimethylamino-propyl)-amide oxalate]	132 to 133.5	5.04	–
CN(C)CCNC(=O)c1cccc(-c2ccc(CSCCOc3ccccc3)cc2)c1.O=C(O)C(=O)O [Example 2, 4′-(2-phenoxy-ethylsulfanylmethyl)-biphenyl-3-carboxylic acid (2-dimethylamino-ethyl)-amide oxalate]	88 to 93	7.52	–
CN(C)CCCNC(=O)c1cccc(-c2cccc(CSCCOc3ccccc3)c2)c1.O=C(O)C(=O)O [Example 13, 3′-(2-phenoxy-ethylsulfanylmethyl)-biphenyl-3-carboxylic acid (3-dimethylamino-propyl)-amide oxalate]	51 to 53	8.76	–
CN(C)CCNC(=O)c1ccc(-c2cccc(CSCCOc3ccccc3)c2)cc1 [Example 14, 3′-(2-phenoxy-ethylsulfanylmethyl)-biphenyl-4-carboxylic acid (2-dimethylamino-ethyl)-amide]	75 to 78	1.47	–
CN(C)CCCNC(=O)c1ccc(-c2cccc(CSCCOc3ccccc3)c2)cc1.O=C(O)C(=O)O [Example 15, 3′-(2-phenoxy-ethylsulfanylmethyl)-biphenyl4-carboxylic acid (3-dimethylamino-propyl)-amide oxalate]	133 to 137	1.95	–
CN(C)CCNC(=O)c1ccc(-c2ccccc2CSCCOc2ccccc2)cc1 [Example 23, 2′-(2-phenoxy-ethylsulfanylmethyl)-biphenyl4-carboxylic acid (2-dimethylamino-ethyl)-amide]	93 to 96	7.2	–
CN(C)CCCNC(=O)c1ccc(-c2ccccc2CSCCOc2ccccc2)cc1 [Example 24, 2′-(2-phenoxy-ethylsulfanylmethyl)-biphenyl4-carboxylic acid (3-dimethylamino-propyl)-amide]	98 to 100	6.13	–
